Experimental data published in patent US20050272055A1 (priority 2000, published 2005).
“Also recorded” adds a separate entry of the source.

Legend:
piglets [1] = details: in vivo
human lymphoid cells = type: cell-based
TNF-α = type: cell-based, human
piglets [2] = tested on: piglets; design: species or system Yorkshire piglets; details: in vivo
CD69 = type: cell-based, human

“1,2,3,9-tetrahydro-9-methyl-3-[(2-methyl-1H-imidazol-1-yl)]4H-carbazol-4-one,monohychloride, dehydrate [Zofran]” was tested, and the “BP-24 h (systolic blood pressure)” value (piglets [1]) was 50-60, the “BP-48 h (systolic blood pressure)” value (piglets [1]) was 50-65 and the “Blood Gases” value (piglets [1]) was “norm”. For the same compound, the Temp-24 h (piglets [1]) was 101-103°, the Temp-48 h (piglets [1]) was 100-103° and the “blood pressure levels in treated and untreated animals” value (piglets [1]) was “no change in the blood pressure”. The cytokine surge (piglets [1]) was “blocks the cytokine surge”, the diarrhea (piglets [1]) was “diarrhea was stopped” and the “effectiveness as 5-HT receptor blockers against SEB-induced incapacitation” value (piglets [1]) was “effective”. The emesis (piglets [1]) was “recovered from emesis”, the “symptoms caused by increase in serotonin levels” value (piglets [1]) was “can block the symptoms” and the temperature (piglets [1]) was “slight improvement in lowering the temperature”.
For `COc1ccc2c(c[n+](C)c3c4cc5c(cc4ccc23)OCO5)c1OC` [Chelerythrine], the “effect on SEB-induced proliferation” value (human lymphoid cells) was “effectively blocked” and the “effect on SEB-induced TNF-alpha production” value (TNF-α) was “blocked production of TNF-α”.
With `O=c1c(-c2ccc(O)cc2)coc2cc(O[C@@H]3O[C@H](CO)[C@@H](O)[C@H](O)[C@H]3O)cc(O)c12` [Genistin] the “animals showing this outcome” value (piglets [2]) was 2/2, the “changes in toxin-induced symptoms compared to the untreated controls” value (piglets [2]) was “did not show any significant changes” and the “pathology versus SEB controls” value (piglets [2]) was “No discernable change in pathology”.
For `CO[C@H]1[C@@H](OC)C[C@H](C)[C@@H](OC)C2=CC(=O)C=C(NC(=O)/C(C)=C/C=C\[C@H](OC)[C@@H](OC(N)=O)/C(C)=C/[C@@H]1C)C2=O` [Herbimycin], the “animals showing this outcome” value (piglets [2]) was 2/2, the “changes in toxin-induced symptoms compared to the untreated controls” value (piglets [2]) was “did not show any significant changes” and the “pathology versus SEB controls” value (piglets [2]) was “No discernable change in pathology”. For the same compound, the rescuing the animals (piglets [2]) was “partially effective”.
For `CN1C2CCCC1CC(NC(=O)c1nn(C)c3ccccc13)C2` (stereo not shown) [Kytril], the diarrhea (piglets [1]) was “diarrhea was stopped”, the “effectiveness as 5-HT receptor blockers against SEB-induced incapacitation” value (piglets [1]) was “effective” and the “symptoms caused by increase in serotonin levels” value (piglets [1]) was “can block the symptoms”.
`C[S+]([O-])c1ccc(-c2nc(-c3ccncc3)c(-c3ccc(F)cc3)[nH]2)cc1` (stereo not shown) [P-38 inhibitor] was tested, and the “effect on SEB-induced proliferation” value (human lymphoid cells) was “clearly inhibited”, the “effect on induction of the TNF-α gene by SEB” value (TNF-α) was “brought down back to control levels” and the “effect on SEB induction of CD69” value (CD69) was “clearly blocked”.
With `CC(=O)CCCCn1c(=O)c2c(ncn2C)n(C)c1=O` [Pentoxifylline] the “animals showing this pathology” value (piglets [2]) was 3/3, the “animals survived after the treatment” value (piglets [2]) was 3 out of 3 and the “animals with moderate pathology” value (piglets [2]) was 2/3. For the same compound, the “animals worse-off, similar to SEB control” value (piglets [2]) was 1/3, the gross pathology findings (piglets [2]) was “No perirenal or mesenteric edema, though there is mesenteric lymphadenopathy” and the pathology (piglets [2]) was “Mild pathology; also recorded: Moderate pathology”. For the same compound, the “time post exposure to SEB up to which it works well” value (piglets [2]) was “up to 4 hours”.
